Results published in the supplement of paper PMC13207355.

What was measured:
Settings in all cases: exposure time: 72 h
E13 [1] = patient-derived glioblastoma stem cells of classical subtype; assay: surviving fraction (nuclei count normalised to DMSO); higher = more cells surviving (less toxic)
E21 [2] = patient-derived glioblastoma stem cells of mesenchymal subtype; assay: as above
E28 [3] = patient-derived glioblastoma stem cells of classical subtype; assay: as above
E31 [4] = patient-derived glioblastoma stem cells of proneural subtype; assay: as above
E34 [5] = patient-derived glioblastoma stem cells of proneural subtype; assay: as above
E57 [6] = patient-derived glioblastoma stem cells of mesenchymal subtype; assay: as above
FT3469 [7] = normal neural stem cell line; assay: as above
E13 [8] = assay: phenotypic distance (Euclidean, principal components) from DMSO controls (arbitrary units); higher = stronger morphological change
E21 [9] = assay: as above
E28 [10] = assay: as above
E31 [11] = assay: as above
E34 [12] = assay: as above
E57 [13] = assay: as above
FT3469 [14] = assay: as above
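Wherever phenotypic distance (Euclidean, principal components) from DMSO controls is given: cell Painting imaging in 384-well plates, CellProfiler features reduced to at least 20 principal components, Euclidean distance versus same-plate DMSO vehicle wells (0.1% v/v), median over six images per well.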
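Wherever surviving fraction (nuclei count normalised to DMSO) is given: nuclei counted by high-content imaging of Hoechst-stained cells in laminin-coated 384-well plates, relative to 0.1% DMSO vehicle wells, with staurosporine as cell-death control.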

Cc1ccc(/C=N/NC(=O)c2n[nH]c3c2CCCC3)cc1 [Suprafenacine]
Settings | phenotypic distance | surviving fraction
E13 [1], 4.1 nM | – | 0.909
E13 [1], 12.3 nM | – | 0.853
E13 [1], 37 nM | – | 0.86
E13 [1], 111.1 nM | – | 0.536
E13 [1], 333.3 nM | – | 0.144
E13 [1], 1000 nM | – | 0.235
E13 [1], 3000 nM | – | 0.1
E13 [8], 4.1 nM | 0.782 | –
E13 [8], 12.3 nM | 0.752 | –
E13 [8], 37 nM | 1.13 | –
E13 [8], 111.1 nM | 3.22 | –
E13 [8], 333.3 nM | 7.1 | –
E13 [8], 1000 nM | 7.86 | –
E13 [8], 3000 nM | 5.88 | –
E21 [2], 4.1 nM | – | 0.963
E21 [2], 12.3 nM | – | 0.931
E21 [2], 37 nM | – | 0.982
E21 [2], 111.1 nM | – | 0.453
E21 [2], 333.3 nM | – | 0.0832
E21 [2], 1000 nM | – | 0.113
E21 [2], 3000 nM | – | 0.0664
E21 [9], 4.1 nM | 0.928 | –
E21 [9], 12.3 nM | 0.73 | –
E21 [9], 37 nM | 1.18 | –
E21 [9], 111.1 nM | 4.45 | –
E21 [9], 333.3 nM | 9.28 | –
E21 [9], 1000 nM | 6.44 | –
E21 [9], 3000 nM | 9.19 | –
E28 [3], 4.1 nM | – | 0.954
E28 [3], 12.3 nM | – | 0.896
E28 [3], 37 nM | – | 0.922
E28 [3], 111.1 nM | – | 0.742
E28 [3], 333.3 nM | – | 0.325
E28 [3], 1000 nM | – | 0.31
E28 [3], 3000 nM | – | 0.217
E28 [10], 4.1 nM | 0.615 | –
E28 [10], 12.3 nM | 0.72 | –
E28 [10], 37 nM | 0.724 | –
E28 [10], 111.1 nM | 1.34 | –
E28 [10], 333.3 nM | 3.15 | –
E28 [10], 1000 nM | 4.1 | –
E28 [10], 3000 nM | 5.78 | –
E31 [4], 4.1 nM | – | 0.95
E31 [4], 12.3 nM | – | 0.845
E31 [4], 37 nM | – | 0.709
E31 [4], 111.1 nM | – | 0.454
E31 [4], 333.3 nM | – | 0.0666
E31 [4], 1000 nM | – | 0.0444
E31 [4], 3000 nM | – | 0.0399
E31 [11], 4.1 nM | 0.29 | –
E31 [11], 12.3 nM | 1.07 | –
E31 [11], 37 nM | 1.19 | –
E31 [11], 111.1 nM | 2.14 | –
E31 [11], 333.3 nM | 6.25 | –
E31 [11], 1000 nM | 9.97 | –
E31 [11], 3000 nM | 12.3 | –
E34 [5], 4.1 nM | – | 1.01
E34 [5], 12.3 nM | – | 0.905
E34 [5], 37 nM | – | 0.938
E34 [5], 111.1 nM | – | 0.69
E34 [5], 333.3 nM | – | 0.409
E34 [5], 1000 nM | – | 0.375
E34 [5], 3000 nM | – | 0.237
E34 [12], 4.1 nM | 0.442 | –
E34 [12], 12.3 nM | 1.02 | –
E34 [12], 37 nM | 0.706 | –
E34 [12], 111.1 nM | 1.69 | –
E34 [12], 333.3 nM | 5.34 | –
E34 [12], 1000 nM | 6.45 | –
E34 [12], 3000 nM | 8.8 | –
E57 [6], 4.1 nM | – | 0.914
E57 [6], 12.3 nM | – | 0.922
E57 [6], 37 nM | – | 0.883
E57 [6], 111.1 nM | – | 0.685
E57 [6], 333.3 nM | – | 0.0911
E57 [6], 1000 nM | – | 0.0842
E57 [6], 3000 nM | – | 0.0511
E57 [13], 4.1 nM | 1.71 | –
E57 [13], 12.3 nM | 0.929 | –
E57 [13], 37 nM | 0.819 | –
E57 [13], 111.1 nM | 3.04 | –
E57 [13], 333.3 nM | 5.2 | –
E57 [13], 1000 nM | 5.41 | –
E57 [13], 3000 nM | 6.18 | –
FT3469 [7], 4.1 nM | – | 0.873
FT3469 [7], 12.3 nM | – | 0.804
FT3469 [7], 37 nM | – | 0.848
FT3469 [7], 111.1 nM | – | 0.492
FT3469 [7], 333.3 nM | – | 0.527
FT3469 [7], 1000 nM | – | 0.471
FT3469 [7], 3000 nM | – | 0.295
FT3469 [14], 4.1 nM | 1.07 | –
FT3469 [14], 12.3 nM | 1.84 | –
FT3469 [14], 37 nM | 1.31 | –
FT3469 [14], 111.1 nM | 2.86 | –
FT3469 [14], 333.3 nM | 3.59 | –
FT3469 [14], 1000 nM | 3.7 | –
FT3469 [14], 3000 nM | 6.28 | –

Cn1ncnc1[C@H]1c2n[nH]c(=O)c3cc(F)cc(c23)N[C@@H]1c1ccc(F)cc1 [Talazoparib]
Settings | phenotypic distance | surviving fraction
E13 [1], 4.1 nM | – | 0.705
E13 [1], 12.3 nM | – | 0.673
E13 [1], 37 nM | – | 0.629
E13 [1], 111.1 nM | – | 0.593
E13 [1], 333.3 nM | – | 0.548
E13 [1], 1000 nM | – | 0.461
E13 [1], 3000 nM | – | 0.51
E13 [8], 4.1 nM | 1.44 | –
E13 [8], 12.3 nM | 1.97 | –
E13 [8], 37 nM | 2.08 | –
E13 [8], 111.1 nM | 2.45 | –
E13 [8], 333.3 nM | 3.55 | –
E13 [8], 1000 nM | 4.7 | –
E13 [8], 3000 nM | 4.3 | –
E21 [2], 4.1 nM | – | 0.755
E21 [2], 12.3 nM | – | 0.777
E21 [2], 37 nM | – | 0.709
E21 [2], 111.1 nM | – | 0.629
E21 [2], 333.3 nM | – | 0.565
E21 [2], 1000 nM | – | 0.403
E21 [2], 3000 nM | – | 0.292
E21 [9], 4.1 nM | 4.97 | –
E21 [9], 12.3 nM | 1.69 | –
E21 [9], 37 nM | 2.19 | –
E21 [9], 111.1 nM | 2.75 | –
E21 [9], 333.3 nM | 3.08 | –
E21 [9], 1000 nM | 4.5 | –
E21 [9], 3000 nM | 5.21 | –
E28 [3], 4.1 nM | – | 0.503
E28 [3], 12.3 nM | – | 0.47
E28 [3], 37 nM | – | 0.44
E28 [3], 111.1 nM | – | 0.418
E28 [3], 333.3 nM | – | 0.388
E28 [3], 1000 nM | – | 0.395
E28 [3], 3000 nM | – | 0.3
E28 [10], 4.1 nM | 3.02 | –
E28 [10], 12.3 nM | 2.65 | –
E28 [10], 37 nM | 3.31 | –
E28 [10], 111.1 nM | 3.57 | –
E28 [10], 333.3 nM | 3.51 | –
E28 [10], 1000 nM | 3.37 | –
E28 [10], 3000 nM | 4.36 | –
E31 [4], 4.1 nM | – | 0.59
E31 [4], 12.3 nM | – | 0.663
E31 [4], 37 nM | – | 0.623
E31 [4], 111.1 nM | – | 0.534
E31 [4], 333.3 nM | – | 0.342
E31 [4], 1000 nM | – | 0.265
E31 [4], 3000 nM | – | 0.207
E31 [11], 4.1 nM | 1.5 | –
E31 [11], 12.3 nM | 1.58 | –
E31 [11], 37 nM | 1.6 | –
E31 [11], 111.1 nM | 2.21 | –
E31 [11], 333.3 nM | 2.86 | –
E31 [11], 1000 nM | 2.1 | –
E31 [11], 3000 nM | 2.79 | –
E34 [5], 4.1 nM | – | 0.623
E34 [5], 12.3 nM | – | 0.671
E34 [5], 37 nM | – | 0.556
E34 [5], 111.1 nM | – | 0.594
E34 [5], 333.3 nM | – | 0.561
E34 [5], 1000 nM | – | 0.503
E34 [5], 3000 nM | – | 0.48
E34 [12], 4.1 nM | 3.39 | –
E34 [12], 12.3 nM | 3.64 | –
E34 [12], 37 nM | 3.15 | –
E34 [12], 111.1 nM | 3.62 | –
E34 [12], 333.3 nM | 3.3 | –
E34 [12], 1000 nM | 2.98 | –
E34 [12], 3000 nM | 3.55 | –
E57 [6], 4.1 nM | – | 0.807
E57 [6], 12.3 nM | – | 0.735
E57 [6], 37 nM | – | 0.797
E57 [6], 111.1 nM | – | 0.676
E57 [6], 333.3 nM | – | 0.605
E57 [6], 1000 nM | – | 0.313
E57 [6], 3000 nM | – | 0.25
E57 [13], 4.1 nM | 1.57 | –
E57 [13], 12.3 nM | 1.96 | –
E57 [13], 37 nM | 1.65 | –
E57 [13], 111.1 nM | 2.9 | –
E57 [13], 333.3 nM | 3.02 | –
E57 [13], 1000 nM | 6.02 | –
E57 [13], 3000 nM | 6.4 | –
FT3469 [7], 4.1 nM | – | 0.637
FT3469 [7], 12.3 nM | – | 0.778
FT3469 [7], 37 nM | – | 0.657
FT3469 [7], 111.1 nM | – | 0.727
FT3469 [7], 333.3 nM | – | 0.648
FT3469 [7], 1000 nM | – | 0.636
FT3469 [7], 3000 nM | – | 0.569
FT3469 [14], 4.1 nM | 2.18 | –
FT3469 [14], 12.3 nM | 1.53 | –
FT3469 [14], 37 nM | 1.5 | –
FT3469 [14], 111.1 nM | 1.69 | –
FT3469 [14], 333.3 nM | 1.74 | –
FT3469 [14], 1000 nM | 1.99 | –
FT3469 [14], 3000 nM | 2.44 | –
